Results published in publication PMC6435784, “Gut Microbiota-Based Pharmacokinetics and the Antidepressant Mechanism of Paeoniflorin” (Frontiers in Pharmacology, 2019).
Read-outs that look alike come from different tables or passages of the source.

Columns and labels:
[1] = Excretion of paeoniflorin in rats (urine, feces, bile); assay type: in vivo, rat; settings: for Excretion rate of paeoniflorin (%), Urine (%), cumulative / Excretion rate of paeoniflorin (%), Feces (%), cumulative: total excretion, oral 20 mg/kg
Description: Then, urine samples and feces samples were collected at 0, 6, 12, 24, 48, 72, and 96 h.

depressed rats = experiment: Chronic unpredictable stress depression model, sucrose preference test; assay type: in vivo, rat; settings: after 2 weeks of drug treatment, compared with model group, n = 8
Description: Forty rats were randomly divided into the following groups (n = 8): the normal control group, the model control group, the fluoxetine group (10 mg/kg), the paeoniflorin low-dose group (10 mg/kg), and the paeoniflorin high-dose group (20 mg/kg). Except for the blank control group, the groups were randomly exposed to two stressors, including behavioral constraints, ice water swimming, electric shock, cold stimulation, clip tail, wet bedding, light/dark reversed, shaking, foods and water deprivation, continuously for 8 weeks to establish a chronic unpredictable stress model. The sucrose preference test was performed at 0 and 14 days after administration.

[2] = system: rat intestinal microbial culture; experiment: Metabolism of paeoniflorin by intestinal bacteria in vitro; assay type: in vitro ADME; settings: 24-h incubation
Description: The colon contents of six rats were pooled, and 5 g of the sample was transferred to a ziplock bag and then mixed thoroughly with anaerobic medium (100 mL). After mixing completely, the cultures were stored at 37°C and preincubated for 1 h. Then, 10 μL of paeoniflorin (100 mg/mL) was added to fresh rat intestinal microbial culture (990 μL) under anaerobic conditions of N2, with a final concentration of 1 mg/mL of paeoniflorin in the culture system ([Hattori et al., 1988]). The inactivated bacteria solution was used as a negative control. Cultures were incubated at 37°C for 0, 2, 6, 12, and 24 h, respectively. After terminated the reaction with 3 volumes of acetonitrile, samples were vortexed for 30 s and then centrifuged at 16,162 g for 5 min. A total of 100 μL of the supernatant were transferred to a centrifuge tube, centrifuged at 16,162 g for 5 min and filtered through a 0.45 μm microporous membrane. Finally, 5 μL of the filtrate solution was collected for analysis.

[3] = Pharmacokinetics of paeoniflorin in pseudo-germ-free (PGF) rats; assay type: in vivo; settings: SD, rat, oral paeoniflorin 20 mg/kg, plasma analyte = labelled substance; for AUC(0-t) / Cmax: plasma, po, 20 mg/kg
Description: Chromatography separation was performed using an XSS T3 column (3.5 μm, 2.1 mm × 100 mm, Waters, Milford, MA, United States) with the column temperature maintained at 40°C at a flow rate of 0.4 mL/min. […] The gradient was as follows: 25% eluent B for 2 min; 25–85% B from 2 to 4 min; 85–25% B from 4 to 5 min and held at 25% from 5 to 7 min. The autosampler temperature was set to 4°C. Mass spectrometry was carried out using multiple reaction monitoring mode (MRM). […] The nebulizing gas flow rate was 2.8 L/min, the drying gas flow rate was 10 L/min, and the heating gas flow rate was 10 L/min. […] The remaining fourteen SD rats were orally administered saline equivalently. Two days after administration, pharmacokinetic experiments were performed. […] Plasma samples were immediately stored at 4°C until analysis. Statistical analyses were conducted using two-way ANOVA and Student’s t-test with GraphPad Prism Version 5 (GraphPad Software, La Jolla, CA, United States). The data are expressed as the means ± standard deviation. […] DAS 3.0 was used to calculate the plasma pharmacokinetic parameters.

[4] = Metabolism of paeoniflorin in the homogenate of the liver tissue in vitro; assay type: in vitro ADME, rat; settings: 100 μg/mL paeoniflorin, 37°C, 1 h, compared with intestinal bacteria incubation system, ***P < 0.001
Description: Fresh rat liver tissue was cut into small pieces, 0.05 M Tris-HC1 buffer (1:2, pH 7.4) was added. The mixture was homogenized in a mixer and paeoniflorin was added to the liver homogenate at a final concentration of 100 μg/mL. Then, the mixture was incubated at 37°C for 1 h. The above reactions were terminated by the addition of 0.4 mL acetonitrile (1:2). Proteins were precipitated by centrifugation at 10,625 g for 5 min, and 10 μL supernatant was injected into the UPLC system for quantification.

gut microbiota = experiment: Analysis of microbial diversity by 16S rRNA gene sequencing; assay type: in vivo, rat; settings: depression model rats, oral 20 mg/kg, 2 weeks of treatment
Description: Rat feces of the chronic unpredictable depression model group were collected after 2 weeks of treatment. Three groups, including the normal control group, the model control group, the paeoniflorin treatment group (oral, 20 mg/kg) were selected. Barcoded pyro sequencing analysis was performed on the V3 and V4 regions by 16S rRNA gene sequencing.

[5] = Metabolism of paeoniflorin in liver microsome in vitro; assay type: in vitro ADME; settings: 5 μM paeoniflorin, 1 mg/mL protein, NADPH, 37°C, incubation 2 h
Description: Samples were incubated at 37°C in a shaker. The incubation mixtures were 0.2 mL of the final volume and the protein concentration was 1 mg/mL. […] The reaction was initiated by the addition of NADPH after a 3 min preincubation at 37°C. The above reactions were terminated by the addition of 0.4 mL acetonitrile (1:2). Proteins were precipitated by centrifugation at 10,625 g for 5 min, and 10 μL supernatant was injected into the UPLC system for quantification.

[6] = normal rats, oral paeoniflorin 20 mg/kg, excreted form = labelled substance, n = 6
[7] = PGF rats (antibiotic pretreated)

## C[C@@]12C[C@@]3(O)O[C@@H](O1)[C@]1(COC(=O)c4ccccc4)[C@H]3C[C@@]12O[C@@H]1O[C@H](CO)[C@@H](O)[C@H](O)[C@H]1O [Paeoniflorin]
[1]; [6]
  96-h cumulative excretion in feces: 0.016%
  96-h cumulative excretion in urine: 1.66%
[1]; time row 0–6 h
  Excretion rate of paeoniflorin (%), Urine (%), cumulative: 0.6821 ± 0.3209%
[1]; time row 6–12 h
  Excretion rate of paeoniflorin (%), Feces (%), cumulative: 0.0890 ± 0.0568%
  Excretion rate of paeoniflorin (%), Urine (%), cumulative: 1.2565 ± 0.9639%
[1]; time row 12–24 h
  Excretion rate of paeoniflorin (%), Feces (%), cumulative: 0.1247 ± 0.0763%
  Excretion rate of paeoniflorin (%), Urine (%), cumulative: 11.4988 ± 6.4969%
[1]; time row 24–48 h
  Excretion rate of paeoniflorin (%), Feces (%), cumulative: 0.1479 ± 0.0932%
  Excretion rate of paeoniflorin (%), Urine (%), cumulative: 28.6890 ± 13.81%
[1]; time row 48–72 h
  Excretion rate of paeoniflorin (%), Feces (%), cumulative: 0.1630 ± 0.0948%
  Excretion rate of paeoniflorin (%), Urine (%), cumulative: 42.8196 ± 19.2297%
[1]; time row 72–96 h
  Excretion rate of paeoniflorin (%), Feces (%), cumulative: 0.1805 ± 0.1055%
  Excretion rate of paeoniflorin (%), Urine (%), cumulative: 43.7953 ± 19.5441%
Depressed rats; 10 mg/kg
  sucrose preference value: higher than that in the model group
Depressed rats; 20 mg/kg
  sucrose preference value: higher than that in the model group
[2]; 37°C, anaerobic, 1 mg/mL paeoniflorin, normal gut bacteria
  transformation of paeoniflorin in intestinal bacteria: completely transformed
[2]; inactivated bacteria solution
  metabolism of paeoniflorin in inactivated gut bacteria (control group): not metabolized
[3]; PGF rats (antibiotic pretreated), read-out: AUC (0-t)
  AUC(0-t): 296 ± 100 ng·h/mL
[3]; PGF rats (antibiotic pretreated), read-out: Cmax
  Cmax: 134 ± 48.5 ng/mL
[3]; PGF rats, Figures 3B, 3C, read-out: AUC(0-t) (unit inferred)
  AUC(0-t): 296 ng·h/mL
[3]; PGF rats, Figures 3B, 3C, read-out: Cmax (unit inferred)
  Cmax: 134 ng/mL
[3]; [7]
  AUC(0-inf): 312 ± 123 ng·h/mL
  Tmax: 0.388 ± 0.136 h
[3]; PGF rats (antibiotic pretreated), read-out: t1/2z (converted)
  half-life: 2.58 ± 1.61 h
[4]
  production of benzoic acid in liver tissue homogenate: significantly lower than that in the intestinal bacteria incubation system
Gut microbiota
  abundance of Facklamia, Jeotgalicoccus, Ruminiclostridium_5 and Eubacterium_coprostanoligenes_group in feces: decreased
  abundance of Lactobacillus, Lachnospira, Eubacterium_ruminantium_group and Roseburia in feces: increased
[5]
  benzoic acid production in the liver microsome system: no benzoic acid produced
